Legend:
hMR = target: T1, hMR (Homo sapiens, UniProt P08235); assay: Cotransfection assay, MR antagonist; type: cell-based; details: read-out: MR Potency Antag
T1 sequence (P08235 1-984): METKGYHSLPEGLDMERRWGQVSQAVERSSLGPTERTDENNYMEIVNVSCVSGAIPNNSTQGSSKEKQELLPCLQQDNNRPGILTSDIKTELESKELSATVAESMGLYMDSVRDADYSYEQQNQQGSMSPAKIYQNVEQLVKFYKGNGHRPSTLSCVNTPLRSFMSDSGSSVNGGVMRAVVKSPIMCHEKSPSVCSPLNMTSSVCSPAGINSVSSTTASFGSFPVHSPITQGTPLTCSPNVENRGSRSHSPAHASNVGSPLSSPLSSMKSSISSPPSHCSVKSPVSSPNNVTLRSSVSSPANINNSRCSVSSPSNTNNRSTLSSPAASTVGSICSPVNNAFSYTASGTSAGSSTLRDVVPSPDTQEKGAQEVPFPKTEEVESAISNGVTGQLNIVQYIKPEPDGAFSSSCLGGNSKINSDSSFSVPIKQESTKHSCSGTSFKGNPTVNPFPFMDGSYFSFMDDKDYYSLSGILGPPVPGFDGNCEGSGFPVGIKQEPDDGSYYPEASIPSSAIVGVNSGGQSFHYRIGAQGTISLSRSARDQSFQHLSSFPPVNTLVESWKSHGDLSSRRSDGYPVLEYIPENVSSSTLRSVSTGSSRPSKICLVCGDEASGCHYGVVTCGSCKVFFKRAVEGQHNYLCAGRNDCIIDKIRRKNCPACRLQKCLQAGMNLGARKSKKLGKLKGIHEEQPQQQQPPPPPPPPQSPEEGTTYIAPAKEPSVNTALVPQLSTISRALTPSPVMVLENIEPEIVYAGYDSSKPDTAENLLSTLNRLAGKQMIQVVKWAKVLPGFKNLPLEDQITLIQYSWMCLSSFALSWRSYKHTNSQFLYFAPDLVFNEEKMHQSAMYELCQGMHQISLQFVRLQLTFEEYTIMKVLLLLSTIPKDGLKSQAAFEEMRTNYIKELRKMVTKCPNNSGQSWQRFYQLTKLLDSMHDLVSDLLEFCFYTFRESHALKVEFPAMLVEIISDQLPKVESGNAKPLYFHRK
Text: (§1) The cotransfection assay provides a method for identifying functional agonists and partial agonists that mimic, or antagonists that inhibit, the effect of native hormones, and for quantifying their activity for responsive intracellular receptor (IR) proteins. In this regard, the cotransfection assay mimics an in vivo system in the laboratory. Importantly, activity in the cotransfection assay correlates very well with known in vivo activity, such that the cotransfection assay functions as a qualitative and quantitative predictor of a tested compound's in vivo pharmacology.
(§2) In the cotransfection assay, a cloned cDNA for an IR (e.g., human PR, AR or GR) under the control of a constitutive promoter (e.g., the SV 40 promoter) is introduced by transfection (a procedure to induce cells to take up foreign genes) into a background cell substantially devoid of endogenous IRs. This introduced gene directs the recipient cells to make the IR protein of interest. A second gene is also introduced (cotransfected) into the same cells in conjunction with the IR gene. This second gene, comprising the cDNA for a reporter protein, such as firefly luciferase (LUC), is controlled by an appropriate hormone responsive promoter containing a hormone response element (HRE). This reporter plasmid functions as a reporter for the transcription-modulating activity of the target IR. Thus, the reporter acts as a surrogate for the products (mRNA, then protein) normally expressed by a gene under control of the target receptor and its native hormone.
(§3) The cotransfection assay can detect small molecule agonists or antagonists of target IRs. Exposing the transfected cells to an agonist ligand compound increases reporter activity in the transfected cells. This activity can be conveniently measured, e.g., by increasing luciferase production, which reflects compound-dependent, IR-mediated increases in reporter transcription. […] Increasing concentrations of a suspected antagonist will decrease the reporter signal (e.g., luciferase production). The cotransfection assay is therefore useful to detect both agonists and antagonists of specific IRs. Furthermore, it determines not only whether a compound interacts with a particular IR, but whether this interaction mimics (agonizes) or blocks (antagonizes) the effects of the native regulatory molecules on target gene expression, as well as the specificity and strength of this interaction.

human PR = target: T2, human PR (Homo sapiens, UniProt P06401); assay: Cotransfection assay, PR antagonist, CV-1 cells; type: cell-based; details: for IC50: Table 1, read-out: PR Antagonist CV-1 Cells Potency; for PR Antagonist CV-1 Cells Efficacy: percent maximal response relative to reference antagonist
T2 sequence (P06401 1-933): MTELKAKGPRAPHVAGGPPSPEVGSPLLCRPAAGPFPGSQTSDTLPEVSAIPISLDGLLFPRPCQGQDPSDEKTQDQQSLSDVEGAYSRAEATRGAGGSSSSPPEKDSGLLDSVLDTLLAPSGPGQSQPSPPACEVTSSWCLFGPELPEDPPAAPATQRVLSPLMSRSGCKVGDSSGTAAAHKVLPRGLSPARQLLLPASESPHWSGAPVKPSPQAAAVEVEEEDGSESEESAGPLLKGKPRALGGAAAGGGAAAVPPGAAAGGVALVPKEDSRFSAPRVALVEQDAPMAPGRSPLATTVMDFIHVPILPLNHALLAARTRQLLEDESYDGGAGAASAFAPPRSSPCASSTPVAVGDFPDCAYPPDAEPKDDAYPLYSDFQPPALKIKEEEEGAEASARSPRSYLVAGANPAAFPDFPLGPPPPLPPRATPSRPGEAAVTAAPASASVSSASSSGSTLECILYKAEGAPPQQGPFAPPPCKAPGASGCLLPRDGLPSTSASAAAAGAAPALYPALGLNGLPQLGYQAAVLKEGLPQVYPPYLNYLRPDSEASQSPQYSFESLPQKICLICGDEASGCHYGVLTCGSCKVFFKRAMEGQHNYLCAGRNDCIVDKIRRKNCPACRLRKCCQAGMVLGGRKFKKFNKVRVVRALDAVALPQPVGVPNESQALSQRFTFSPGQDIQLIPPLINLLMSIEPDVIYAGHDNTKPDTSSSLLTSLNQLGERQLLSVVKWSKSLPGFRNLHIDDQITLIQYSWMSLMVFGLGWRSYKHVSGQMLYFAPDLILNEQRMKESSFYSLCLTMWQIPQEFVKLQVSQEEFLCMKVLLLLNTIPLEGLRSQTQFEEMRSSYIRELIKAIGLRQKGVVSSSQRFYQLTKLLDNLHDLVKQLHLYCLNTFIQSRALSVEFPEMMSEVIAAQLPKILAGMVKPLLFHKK
Text: as §1, §2, §3

| SMILES | IC50 (hMR) [µM] | IC50 (human PR) [µM] | PR Antagonist CV-1 Cells Efficacy (human PR) [%] |
| --- | --- | --- | --- |
| CC1(C)OC(=O)Nc2ccc3c(c21)COc1c(F)cc(C=O)cc1-3 [Compound 24, 7-fluoro-9-formyl-4,4-dimethyl-5H-chromeno[3,4-f]-1,3-benzo[d]oxazin-2-one] | > 10 | 0.098 | 84 |
| CC1(C)OC(=O)Nc2ccc3c(c21)COc1c(F)cccc1-3 [Compound 14, 7-Fluoro-4,4-dimethyl-5H-chromeno[3,4-f]-1,3-benzo[d]oxazin-2-one] | > 10 | 0.025 | 95 |
| CC1(C)OC(=O)Nc2ccc3c(c21)COc1c(F)cc(Br)cc1-3 [Compound 20, 9-Bromo-7-fluoro-4,4-dimethyl-5H-chromeno[3,4-f]-1,3-benzo[d]oxazin-2-one] | > 10 | 0.02 | 80 |
| CC1(C)OC(=O)Nc2ccc3c(c21)COc1c(F)cc(C#N)cc1-3 [Compound 26, 9-cyano-7-fluoro-4,4-dimethyl-5H-chromeno[3,4-f]-1,3-benzo[d]oxazin-2-one] | > 10 | 0.016 | 68 |
| CC1(C)OC(=O)Nc2ccc3c(c21)COc1c(F)cc(C=NO)cc1-3 [Compound 25, 7-fluoro-9-hydroxyiminomethyl-4,4-dimethyl-5H-chromeno[3,4-f]-1,3-benzo[d]oxazin-2-one] | > 10 | 0.023 | 87 |

Source: patent publication US6358947B1 (American Home Products Corporation, priority 1999, dated 2002)
